Experimental data as given in publication PMC5773487, “Harnessing insulin- and leptin-induced oxidation of PTP1B for therapeutic development” (Nature Communications, 2018).
“Also recorded” adds a separate entry of the source. Read-outs that look alike come from different tables or passages of the source.

What was measured:
[1] = biological target: T1, PTP1B-OX (Homo sapiens, UniProt P18031); assay: reduction and reactivation of reversibly oxidized PTP1B by TCEP, DiFMUP substrate; assay type: biochemical; conditions: for inhibition of reduction and reactivation (stabilization) of PTP1B-OX: in words
T1 construct: Purified PTP1B (1–321) (100 nM) was mixed with increasing concentrations of H2O2; 6xHis (C); made in house; host or cells: E. coli BL21 (DE3)-RIL
T1 sequence (P18031 1-321): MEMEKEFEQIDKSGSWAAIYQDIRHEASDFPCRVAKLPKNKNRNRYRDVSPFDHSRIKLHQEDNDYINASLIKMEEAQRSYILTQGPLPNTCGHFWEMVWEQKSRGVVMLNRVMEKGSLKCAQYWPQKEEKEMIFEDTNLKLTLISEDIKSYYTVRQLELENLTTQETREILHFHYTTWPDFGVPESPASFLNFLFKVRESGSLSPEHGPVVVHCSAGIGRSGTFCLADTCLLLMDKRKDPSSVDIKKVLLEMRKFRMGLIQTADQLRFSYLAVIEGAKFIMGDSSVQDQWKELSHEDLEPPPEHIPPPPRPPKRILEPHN
Protocol: Therefore, our approach has been to adapt this assay, which we used to screen for conformation-sensor scFvs[17], now to screen for small molecules that act through a similar mechanism. Our primary screening assay tested the ability of small molecule inhibitors to antagonize the reduction and reactivation of the oxidized conformation of PTP1B, similar to that of scFv45 (Fig. 4a).
Purified PTP1B (1–321) (100 nM) was mixed with increasing concentrations of H2O2 (0.05–100 mM) in phosphatase assay buffer (50 mM HEPES, pH 7.0, 100 mM NaCl, 0.1% BSA) at room temperature for 5 min. From this reaction mixture PTP1B (10 nM) was used to monitor phosphatase activity using DiFMUP as the substrate, with or without 5 mM TCEP. Activity of each sample was compared to that of the untreated PTP1B in the presence of 5 mM TCEP.
To screen the LOPAC library against PTP1B-OX, 0.5 μl of 1 mM compound in 100% DMSO was added to 384-well plates, resulting in a final compound concentration of 10 μM for the primary screen. Recombinant PTP1B (100 nM) was reversibly oxidized and inactivated with H2O2 (4 mM). The phosphatase activity was restored by a quick buffer exchange and addition of reducing agent (TCEP). PTP1B-OX was incubated with LOPAC compounds (10 μM) in the assay buffer (50 mM HEPES pH 7.0, 100 mM NaCl, 0.005% Tween, 2 mM EDTA) and the effect of individual compound on stabilizing the reversibly oxidized conformation was assessed by the phosphatase assay under reducing conditions using DiFMUP as substrate. scFv45 was used as positive control.

[2] = test system: insulin signaling in liver, leptin signaling in hypothalamus; assay: insulin and leptin signaling in liver and hypothalamus lysates of treated mice; assay type: in vivo; conditions: HFD mice
Protocol: Fig. 9 Chelerythrine improved metabolism and promoted insulin and leptin signaling in mice. a Body weight of male mice (C57bl6/J) fed high fat diet and treated with chelerythrine (3 mg kg^−1), protopine (3 mg kg^−1) or saline was monitored from the beginning of the treatment (10 weeks of age) until the study was terminated (14 weeks of age). Data represent the mean ± s.e.m. (n = 10 in each group). b HFD fed 14-week-old male mice treated with saline or chelerythrine were administered D-glucose (2 mg g^−1 body weight), and blood glucose was monitored over the defined time. Data represent the mean ± s.e.m. (n = 10 in each group) and statistical analysis was performed using two-way ANOVA (*p < 0.05, **p < 0.01). c HFD fed 14-week-old male mice treated with saline or chelerythrine were administered insulin (0.75 mU g^−^1 body weight), and blood glucose was monitored over the defined time. Data represent mean ± s.e.m. (n = 10 in each group) and statistical analysis was performed using two-way ANOVA (*p < 0.05). d Representative immunoblots showing insulin-induced tyrosine phosphorylation of IR-β and phosphorylation of AKT, and their corresponding total protein levels, in liver tissue lysates from 14-week-old male mice treated with saline, chelerythrine or protopine. For insulin stimulation, animals were treated with insulin (0.75 mU g^−1, i.p.) for 15 min. e Representative immunoblots showing leptin-induced tyrosine phosphorylation of JAK2 and corresponding total JAK2 levels in the hypothalamus tissue lysates from 14-week-old male mice treated with saline, chelerythrine or protopine. For leptin stimulation, animals were treated with leptin (1 mg kg^−^1, s.c.) for 15 min. All immunoblots are representative of tissue lysates generated from at least three independent animals for each condition (n = 3). Immunoblots were quantified using ImageJ software. Quantitation includes all independent data from the respective experiments and is presented as the mean ± s.e.m. d, e Statistical analysis was performed using two-way ANOVA (*p < 0.05)
Animal experiments were performed according to protocols approved by the Institutional Animal Use and Care Committee of Cold Spring Harbor laboratory. Ten week-old male C57bl6/J mice fed chow diet or high fat diet (D12492) were acclimatized for 10 days under standard conditions before experiments. Mice were intraperitoneally (i.p.) injected once daily with vehicle, 3 mg kg^−1 of chelerythrine or 3 mg kg^−1 of protopine for 30 days. Mice were killed after 6 h of fasting, and serum samples were collected to measure the metabolic parameters and tissue samples were collected for studying changes in signaling. No animals were excluded from the analysis.

[3] = biological target: T1, PTP1B-OX; assay: reduction and reactivation of reversibly oxidized PTP1B by TCEP, DiFMUP substrate; assay type: biochemical
[4] = insulin 0.75 mU g−1 i.p. 15 min

For `CN1CCc2cc3c(cc2C(=O)Cc2ccc4c(c2C1)OCO4)OCO3` [protopine], the “inhibition of reduction and reactivation (stabilization) of PTP1B-OX” value [1] was “did not inhibit; also recorded: ineffective; also recorded: did not stabilize” and the “IR-β phosphorylation in liver” value [2, 4] was “not observed”.

With `COc1ccc2c(c[n+](C)c3c4cc5c(cc4ccc23)OCO5)c1OC` [chelerythrine] the “IC50 relative to sanguinarine” value [1] was “fivefold lower”, the “preference for PTP1B-OX over reduced PTP1B” value [1] was “at least 100 fold” and the Ki ([1]; DiFMUP substrate) was 5 µM. The IC50 ([1]; wild-type PTP1B-OX, reactivation by TCEP, DiFMUP substrate, read-out: IC50 against PTP1B-OX) was 5 µM, the “AKT phosphorylation in liver” value [2, 4] was “enhanced” and the “IR-β phosphorylation in liver” value [2, 4] was “marked increase”. For the same molecule, the “phosphorylation of JAK2 in hypothalamus” value ([2]; leptin 1 mg kg−1 s.c. 15 min) was “enhanced phosphorylation of JAK2” and the “reversibility of PTP1B-OX inhibition” value ([3]; complex diluted 100-fold, activity monitored 120 min) was “reversible”.

B1: scFv45: recombinant conformation-sensor single-chain variable fragment antibody recognizing oxidized PTP1B (antibody, V domains shown)
VH: TVTLDESGGGLQAPGGALSLVCKASGFTFSSYDMGWIRQAPGKGLEYVAGITDNGRYASYGSAVDGRATISRDNGQSSVRLQLNNLRAEDTGTYYCARDDGSGWTGNSIDAWGHGTEVIVSE
VL: ALTQPSSVSANPGGTVKITCSGSSSAYGYGWYQQKSPGSAPVTVIYNNNKRPSNIPSRFSGSKSGSTGTLTITGVQAEDEAVYFCGSEDSSTDAIFGAGTTLTVL
B1 was tested, and the “inhibition of reduction and reactivation (stabilization) of PTP1B-OX” value [1] was “impaired in a dose-dependent manner” and the Ki ([3]; intrabodies, phosphatase activity, read-out: Ki against oxidized PTP1B-wt) was 0.01 µM.
